Consider 18 molecules from PubChem BioAssay (NCI).

Some test systems named below: OVCAR-8 ovarian; OVCAR-3 ovarian; SK-MEL-5 melanoma; TK-10 renal; U251 CNS; HCC-2998 colon; NCI-H522 lung; MDA-MB-231 breast; PC-3 prostate.
Test in all cases: growth of human tumour cells (NCI), 48 h

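Following 48 hours of exposure in 96-well plates, responses at five concentrations were used to interpolate endpoints linearly. GI50 is the concentration that inhibits growth by half. TGI is the concentration that stops growth completely.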

As for `Cc1cccc(C)c1NC(=O)CCC(=O)NC(N)=NC#N`, the TGI with OVCAR-8 ovarian, in the experiment on OVCAR-3 ovarian, in the experiment on SK-MEL-5 melanoma, with TK-10 renal, in the experiment with U251 CNS and in the experiment on HCC-2998 colon was above 100 µM each time. In the experiment with NCI-H522 lung, this molecule displayed a TGI above 100 µM.

Consider `Cn1[nH]cc2ccc3nc4ccccc4c(=O)c3c21`, for which the TGI in the experiment with OVCAR-8 ovarian was above 94.9 µM; in the experiment on OVCAR-3 ovarian, above 100 µM; with SK-MEL-5 melanoma, 35.1 µM; in the experiment with TK-10 renal, 72.2 µM; with U251 CNS it was 30.7 µM; with HCC-2998 colon, 90.5 µM. Also, the TGI with NCI-H522 lung is 64.9 µM.

Consider `CC1(C)C(=O)OC(n2cc(F)c(=O)[nH]c2=O)C1=O` (configuration not stated), for which the TGI in the experiment with OVCAR-8 ovarian, with OVCAR-3 ovarian, in the experiment on TK-10 renal, with U251 CNS, in the experiment with HCC-2998 colon and in the experiment on NCI-H522 lung was above 100 µM in each case.

Turning to `Cc1ccccc1NC(=O)Cc1nc2ccccc2s1`, the TGI was 32.4 µM in the experiment on OVCAR-8 ovarian; 32 µM with OVCAR-3 ovarian; above 100 µM in the experiment with SK-MEL-5 melanoma; 41 µM in the experiment on TK-10 renal; 24.1 µM with U251 CNS; 64.9 µM with HCC-2998 colon. The molecule also showed a TGI in the experiment on NCI-H522 lung of 29.3 µM.

Turning to `CC(=O)[CH-]C(=O)c1ccccc1.CC(=O)[CH-]C(=O)c1ccccc1.Cl.[O-]c1ccnc2ccccc12.[O-]c1ccnc2ccccc12.[Ti+4]`, the GI50 in the experiment on OVCAR-8 ovarian, in the experiment on OVCAR-3 ovarian, with SK-MEL-5 melanoma, in the experiment with U251 CNS, with HCC-2998 colon and in the experiment with NCI-H522 lung was above 100 µM in each case. The TGI with OVCAR-8 ovarian, with OVCAR-3 ovarian, in the experiment with SK-MEL-5 melanoma, with U251 CNS, in the experiment on HCC-2998 colon and in the experiment with NCI-H522 lung was above 100 µM in each case.

As to `Cc1ccc(S(=O)(=O)OCOS(=O)(=O)c2ccc(C)cc2)cc1`, the TGI in the experiment with OVCAR-8 ovarian, in the experiment with OVCAR-3 ovarian, in the experiment with SK-MEL-5 melanoma, in the experiment on TK-10 renal, with U251 CNS and in the experiment on HCC-2998 colon was above 100 µM in each case. Moreover, the TGI with NCI-H522 lung was above 100 µM.

In the case of `CCOC(=O)C1=C(OC(OCC)C([Se]c2ccccc2)C(C)C)CCC1` (configuration not stated), the TGI with OVCAR-8 ovarian was 27.4 µM; in the experiment with OVCAR-3 ovarian it was 40 µM; in the experiment with SK-MEL-5 melanoma it was 28.8 µM; in the experiment on TK-10 renal, above 100 µM; in the experiment on U251 CNS it was 16.6 µM; with HCC-2998 colon it was above 100 µM. The same molecule had a TGI with NCI-H522 lung of 20.2 µM.

For `COC(=O)C1=CC2C(=O)OC1C1C(=O)NC(=O)C21` (configuration not stated), the TGI in the experiment on OVCAR-8 ovarian, with OVCAR-3 ovarian, in the experiment on SK-MEL-5 melanoma, in the experiment with TK-10 renal, with U251 CNS and in the experiment on HCC-2998 colon was above 100 µM each time. This molecule also had a TGI in the experiment on NCI-H522 lung above 100 µM.

As for `O=C(/C=C/c1ccc(Cl)c(Cl)c1)c1ccccc1Cl`, the TGI with OVCAR-8 ovarian turned out to be 11.8 µM; with OVCAR-3 ovarian, 23 µM; in the experiment on SK-MEL-5 melanoma, 26.7 µM; in the experiment with TK-10 renal, 47.9 µM; in the experiment on U251 CNS, 10.3 µM; in the experiment on HCC-2998 colon, 25.6 µM. Moreover, the TGI in the experiment with NCI-H522 lung came out at 24.1 µM.

Take `CCC12C=CCN(CCc3c([nH]c4ccccc34)/C=C\1)C2` (configuration not stated): the TGI in the experiment on OVCAR-3 ovarian, in the experiment with SK-MEL-5 melanoma, in the experiment with U251 CNS, in the experiment with HCC-2998 colon and with NCI-H522 lung was above 100 µM each time.

Turning to `O=c1nc2sc3ccccc3c(=O)n2[nH]1`, the TGI in the experiment on OVCAR-8 ovarian, in the experiment on OVCAR-3 ovarian, with SK-MEL-5 melanoma, with TK-10 renal, in the experiment with U251 CNS and with HCC-2998 colon was above 100 µM in each case.

Regarding `CCOC(=O)c1cc(=O)n(C)c(=O)n1C`, the TGI with OVCAR-8 ovarian, with OVCAR-3 ovarian, in the experiment on SK-MEL-5 melanoma, in the experiment with TK-10 renal, in the experiment on U251 CNS and with HCC-2998 colon was above 100 µM each time. Besides, in the experiment on NCI-H522 lung, the TGI is above 100 µM.

In the case of `Cc1ccc2c(c1)-c1c3c(nn1C)-c1ccccc1SC3O2` (configuration not stated), the TGI in the experiment on OVCAR-8 ovarian, in the experiment on OVCAR-3 ovarian, in the experiment with TK-10 renal, with U251 CNS, in the experiment with HCC-2998 colon and with NCI-H522 lung was above 100 µM throughout.

Consider `C=C1C(=O)O[C@H](c2ccoc2)C[C@@H]1[C@@]1(C)CCCC2(C)C(=O)OCC21` (some centres not stated), for which the TGI in the experiment with OVCAR-8 ovarian, in the experiment on OVCAR-3 ovarian, in the experiment on SK-MEL-5 melanoma, with TK-10 renal, in the experiment with U251 CNS and in the experiment with HCC-2998 colon was above 100 µM in each case. For the same molecule, the TGI in the experiment on NCI-H522 lung is above 100 µM.

In the case of `Cc1cccc(NC(=O)C(=O)C(C2OC(=O)c3ccccc32)[N+](=O)[O-])c1C` (configuration not stated), the TGI in the experiment with OVCAR-8 ovarian was 26.8 µM; in the experiment on OVCAR-3 ovarian, 5.11 µM; in the experiment with SK-MEL-5 melanoma, 19.2 µM; in the experiment with TK-10 renal, 32 µM; with U251 CNS it was 12.6 µM; in the experiment on HCC-2998 colon it was 27 µM. The molecule also gave a TGI with NCI-H522 lung of 4.2 µM.

Regarding `O=C1c2ccccc2C(=O)N1CCCOCc1c[nH]c(=O)[nH]c1=O`, the TGI in the experiment with OVCAR-8 ovarian, in the experiment with OVCAR-3 ovarian, in the experiment with SK-MEL-5 melanoma, in the experiment on TK-10 renal, in the experiment on U251 CNS and in the experiment with NCI-H522 lung was above 100 µM throughout.

Turning to `CN(C)NC(=O)/C(=C/c1ccc(Cl)cc1)NC(=O)c1ccccc1`, the TGI with OVCAR-8 ovarian, in the experiment on OVCAR-3 ovarian, in the experiment on SK-MEL-5 melanoma, with TK-10 renal, in the experiment on U251 CNS and with HCC-2998 colon was above 100 µM throughout. In the experiment on NCI-H522 lung, this molecule displayed a TGI above 100 µM.

`C[C@]12CC[C@H](O[C@@H]3O[C@H](CO[C@@H]4O[C@H](CO)[C@@H](O)[C@H](O)[C@H]4O)[C@@H](O)[C@H](O)[C@H]3O)C[C@@H]1CC[C@@H]1[C@@H]2CC[C@]2(C)[C@@H](C3=CC(=O)OC3)CC[C@]12O`: the TGI in the experiment on OVCAR-8 ovarian is 96.9 µM; with MDA-MB-231 breast it was above 100 µM; with OVCAR-3 ovarian, above 74.1 µM; in the experiment on SK-MEL-5 melanoma, 8.52 µM; with TK-10 renal it was above 51.6 µM; in the experiment on U251 CNS it was above 100 µM. Also, the results for the TGI in the experiment on PC-3 prostate, with HCC-2998 colon and with NCI-H522 lung were above 100 µM, 51 µM and 46.7 µM, respectively.
